Measured values from US7642269B2, “Pyrrolo[3,2-B]pyridine derivatives and processes for the preparation thereof” (Yuhan Corporation, priority 2005, dated 2010).
pIC50: −log10 of the molar value. Structures can show the parent of a compound that is named as a salt.

How the values were obtained:
H^+/K^+-ATPase = target: T1, H^+/K^+-ATPase (Sus scrofa, UniProt P19156); test: Inhibitory effects on proton pump (H^+/K^+-ATPase) activity, hog gastric vesicles; type: biochemical; conditions: K^+ stimulated H^+/K^+-ATPase activity, hog gastric vesicle, Pi measured at 620 nm
T1 construct: used as an enzyme source of the in vitro enzyme reaction assay of proton pump; from tissue; host or cells: hog gastric fundic mucosa (membrane vesicles, lyophilized)
Method in brief: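 Lyophilized hog gastric vesicles in Pipes/Tris pH 6.1 were preincubated 5 min with compounds (1% DMSO), then run with ATP for 30 min at 37 °C. Released phosphate was measured by malachite green at 620 nm; K^+-stimulated activity taken as the difference between reactions with and without K^+.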

[1] = system: basal gastric acid secretion; test: Inhibitory effects on basal gastric acid secretion in pylorus-ligated rats (Shay's rat model); type: in vivo, Sprague Dawley (SD) rats; conditions: oral, one hour before pylorus ligation, total acid output 5 hours after ligation, male SD rats
Method: Inhibitory effects of the compounds of the present invention on basal gastric acid secretion were performed according to Shay's rat model (Shay, H., et al., 1945, gastroenterology, 5, 43-61). Male Sprague Dawley (SD) rats (200±10 g body weight) were divided into 3 groups (n=5) and fasted for 24 hours with free access to water. Control group was orally administered with 0.5% methylcellulose alone and the other groups were orally administered with test compounds suspended in 0.5% methyl-cellulose solution at doses of 1, 3 and 10 mg/kg/5 ml one hour before pylorus ligation. Under ether anesthesia, the abdomens of the rats were incised and then the pylorus was ligated. 5 hours after ligation, the animals were sacrificed, and the gastric contents were collected. The collected contents were centrifuged at 1,000×g for 10 minutes to obtain the gastric juice. Total acid output was measured by 0.01N NaOH volume (ueq/ml) for automatic titration of the gastric juice to pH 7.0 and the ED50s of test compounds were calculated using the Litchfield-Wilcoxon method. % inhibitory activity was calculated from the following equation and the results are shown in Table 2. % inhibitory activity of test compound=(total acid output of control group−total acid output of the group treated with test compounds)/total acid output of control group X 100

T1 sequence (P19156 2-1034 limits assumed): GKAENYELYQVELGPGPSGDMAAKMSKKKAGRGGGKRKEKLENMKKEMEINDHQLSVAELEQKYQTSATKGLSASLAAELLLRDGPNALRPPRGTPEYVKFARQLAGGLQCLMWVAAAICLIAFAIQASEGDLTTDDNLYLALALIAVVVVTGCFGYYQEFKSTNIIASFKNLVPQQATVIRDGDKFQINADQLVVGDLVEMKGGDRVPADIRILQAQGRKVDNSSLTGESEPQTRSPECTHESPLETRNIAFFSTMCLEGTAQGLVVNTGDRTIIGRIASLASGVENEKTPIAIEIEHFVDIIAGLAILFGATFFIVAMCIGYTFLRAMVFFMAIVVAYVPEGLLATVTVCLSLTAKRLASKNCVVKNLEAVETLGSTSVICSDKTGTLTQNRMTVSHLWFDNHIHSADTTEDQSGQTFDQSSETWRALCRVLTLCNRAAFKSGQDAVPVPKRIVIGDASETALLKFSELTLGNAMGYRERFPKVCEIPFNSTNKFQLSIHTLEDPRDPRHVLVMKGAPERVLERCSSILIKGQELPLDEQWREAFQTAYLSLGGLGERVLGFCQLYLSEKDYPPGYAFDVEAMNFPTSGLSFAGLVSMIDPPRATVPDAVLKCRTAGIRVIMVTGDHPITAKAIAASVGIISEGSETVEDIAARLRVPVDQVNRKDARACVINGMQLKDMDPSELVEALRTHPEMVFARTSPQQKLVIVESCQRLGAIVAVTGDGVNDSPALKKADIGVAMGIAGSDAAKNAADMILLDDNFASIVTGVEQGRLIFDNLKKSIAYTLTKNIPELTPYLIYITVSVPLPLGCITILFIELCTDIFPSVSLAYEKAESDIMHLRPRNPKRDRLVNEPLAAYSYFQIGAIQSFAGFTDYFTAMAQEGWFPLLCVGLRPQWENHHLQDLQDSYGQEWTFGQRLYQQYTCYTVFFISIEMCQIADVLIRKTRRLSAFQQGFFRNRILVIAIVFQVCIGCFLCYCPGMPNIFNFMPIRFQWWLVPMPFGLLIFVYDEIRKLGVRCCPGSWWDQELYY
T1 sequence (P18434 whole entry partner): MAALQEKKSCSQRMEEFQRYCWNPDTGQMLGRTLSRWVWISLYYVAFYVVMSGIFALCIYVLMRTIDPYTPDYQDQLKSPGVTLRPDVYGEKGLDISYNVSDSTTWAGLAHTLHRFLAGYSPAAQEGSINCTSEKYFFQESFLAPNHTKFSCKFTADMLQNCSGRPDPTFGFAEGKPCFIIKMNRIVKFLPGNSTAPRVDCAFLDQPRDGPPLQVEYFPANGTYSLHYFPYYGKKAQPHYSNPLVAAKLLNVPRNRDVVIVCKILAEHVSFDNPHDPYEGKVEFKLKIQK

Compound | pIC50 (H^+/K^+-ATPase) | ED50 [1]
CCCn1c(C)c(C)c2nccc(OCc3ccc(F)cc3)c21.Cl [Example 62, 7-(4-fluorobenzyloxy)-2,3-dimethyl-1-propyl-1H-pyrrolo[3,2-b]pyridine hydrochloride] | 6.96 | 1.6 mg/kg
C=CCn1c(C)c(C)c2nccc(OCc3ccc(Cl)cc3)c21.Cl [Example 72, 1-allyl-7-(4-chlorobenzyloxy)-2,3-dimethyl-1H-pyrrolo[3,2-b]pyridine hydrochloride] | 7.52 | 2 mg/kg
COCCn1c(C)c(C)c2nccc(OCc3ccc(F)cc3)c21.Cl [Example 61, 7-(4-fluorobenzyloxy)-1-(2-methoxyethyl)-2,3-dimethyl-1H-pyrrolo[3,2-b]pyridine hydrochloride] | 7.00 | 3 mg/kg
Cc1c(C)n(Cc2ccccc2)c2c(OCc3ccc(Cl)cc3)ccnc12.Cl [Example 73, 1-benzyl-7-(4-chlorobenzyloxy)-2,3-dimethyl-1H-pyrrolo[3,2-b]pyridine hydrochloride] | 7.40 | 2.5 mg/kg
CC(C)=CCn1c(C)c(C)c2nccc(OCc3ccc(Cl)cc3)c21 [Example 84, 7-(4-chlorobenzyloxy)-2,3-dimethyl-1-(3-methylbut-2-enyl)-1H-pyrrolo[3,2-b]pyridine hydrochloride] | 6.41 | 
COc1cccc(Cn2c(C)c(C)c3nccc(OCc4ccc(C(F)(F)F)cc4)c32)c1 [Example 201, 1-(3-methoxybenzyl)-2,3-dimethyl-7-(4-trifluoromethylbenzyloxy)-1H-pyrrolo[3,2-b]pyridine hydrochloride] | 6.17 | 
COCCn1c(C)c(C)c2nccc(OCc3ccc(Cl)cc3)c21.Cl [Example 86, 7-(4-chlorobenzyloxy)-1-(2-methoxyethyl)-2,3-dimethyl-1H-pyrrolo[3,2-b]pyridine hydrochloride] | 7.30 | 1.1 mg/kg
CCn1c(C)c(C)c2nccc(N3CCc4ccccc4C3)c21 [Example 13, 1-ethyl-7-(1,2,3,4-tetrahydroisoquinolin-2-yl)-2,3-dimethyl-1H-pyrrolo[3,2-b]pyridine hydrochloride] | 6.10 | 
COCCn1c(C)c(C)c2nccc(OCc3ccc(F)cc3)c21 [Example 127, 7-(4-fluorobenzyloxy)-1-(2-methoxyethyl)-2,3-dimethyl-1H-pyrrolo[3,2-b]pyridine sulfate] | 7.40 | 
1-(3-methylbuten-2-yl)-7-(1,2,3,4-tetrahydroisoquinolin-2-yl)-2,3-dimethyl-1H-pyrrolo[3,2-b]pyridine hydrochloride [Example 16] | 6.72 | 
Cc1nc2c(C)c(C)n(Cc3ccccc3)c2c(NCc2ccc(F)cc2)c1C [Example 268, N-(1-benzyl-2,3,5,6-tetramethyl-1H-pyrrolo[3,2-b]pyridin-7-yl)-4-fluorobenzylamine hydrochloride] | 5.90 | 
COc1cccc(Cn2c(C)c(C)c3nccc(N4CCc5ccccc5C4)c32)c1 [Example 8, 1-(3-methoxybenzyl)-7-(1,2,3,4-tetrahydroisoquinolin-2-yl)-2,3-dimethyl-1H-pyrrolo[3,2-b]pyridine hydrochloride] | 6.36 | 
Cc1c(C)n(Cc2ccc(F)cc2)c2c(OCc3ccc(Br)cc3)ccnc12 [Example 221, 7-(4-bromobenzyloxy)-1-(4-fluorobenzyl)-2,3-dimethyl-1H-pyrrolo[3,2-b]pyridine hydrochloride] | 6.74 | 
Cc1c(C)n(Cc2ccc(F)cc2)c2c(OCc3ccc4c(c3)OCO4)ccnc12 [Example 118, 7-(benzo[1,3]dioxol-5-ylmethoxy)-1-(4-fluorobenzyl)-2,3-dimethyl-1H-pyrrolo[3,2-b]pyridine hydrochloride] | 6.34 | 
Cc1c(C)n(Cc2ccc(Cl)cc2)c2c(OCc3ccc(F)cc3)ccnc12 [Example 33, 1-(4-chlorobenzyl)-7-(4-fluorobenzyloxy)-2,3-dimethyl-1H-pyrrolo[3,2-b]pyridine hydrochloride] | 6.19 | 
Cc1c(C)n(CC(C)C)c2c(OCc3ccc4c(c3)OCO4)ccnc12 [Example 120, 7-(benzo[1,3]dioxol-5-ylmethoxy)-1-isobutyl-2,3-dimethyl-1H-pyrrolo[3,2-b]pyridine hydrochloride] | 6.92 | 
Cc1c(C)n(Cc2ccccc2)c2c(N3CCc4ccccc4C3)ccnc12 [Example 6, 1-benzyl-7-(1,2,3,4-tetrahydroisoquinolin-2-yl)-2,3-dimethyl-1H-pyrrolo[3,2-b]pyridine hydrochloride] | 6.70 | 
COCCn1c(C)c(C)c2nccc(OCc3ccc(F)cc3)c21 [Example 125, 7-(4-fluorobenzyloxy)-1-(2-methoxyethyl)-2,3-dimethyl-1H-pyrrolo[3,2-b]pyridine p-toluenesulfonate] | 7.30 | 
Cc1c(C)n(Cc2ccc(Cl)cc2)c2c(OCc3ccc(Cl)cc3)ccnc12 [Example 88, 7-(4-chlorobenzyloxy)-1-(4-chlorobenzyl)-2,3-dimethyl-1H-pyrrolo[3,2-b]pyridine hydrochloride] | 6.17 | 
CCn1c(C)c(C)c2nccc(OCc3ccc4c(c3)OCO4)c21 [Example 117, 7-(benzo[1,3]dioxol-5-ylmethoxy)-1-ethyl-2,3-dimethyl-1H-pyrrolo[3,2-b]pyridine hydrochloride] | 6.14 | 

More lines, main results first:

pIC50 (H^+/K^+-ATPase) | Compound | ED50 [1]
7.70 | Cc1c(C)n(CC2CC2)c2c(OCc3ccc(Cl)cc3Cl)ccnc12.Cl [Example 139, 1-cyclopropylmethyl-7-(2,4-dichlorobenzyloxy)-2,3-dimethyl-1H-pyrrolo[3,2-b]pyridine hydrochloride] | 1.6 mg/kg
6.62 | Cc1cccc(COc2ccnc3c(C)c(C)n(Cc4ccccc4)c23)c1 [Example 144, 1-benzyl-2,3-dimethyl-7-(3-methylbenzyloxy)-1H-pyrrolo[3,2-b]pyridine hydrochloride] | 
6.00 | CCOc1ccccc1COc1ccnc2c(C)c(C)n(CC3CCC3)c12 [Example 163, 1-cyclobutylmethyl-7-(2-ethoxybenzyloxy)-2,3-dimethyl-1H-pyrrolo[3,2-b]pyridine hydrochloride] | 
7.15 | Cc1c(C)n(CC2CCC2)c2c(OCc3ccc(F)cc3)ccnc12.Cl [Example 55, 1-cyclobutylmethyl-7-(4-fluorobenzyloxy)-2,3-dimethyl-1H-pyrrolo[3,2-b]pyridine hydrochloride] | 1.3 mg/kg
7.05 | Cc1c(C)n(CC2CC2)c2c(OCc3ccc(Cl)cc3)ccnc12.Cl [Example 97, 7-(4-chlorobenzyloxy)-1-cyclopropylmethyl-2,3-dimethyl-1H-pyrrolo[3,2-b]pyridine hydrochloride] | 2 mg/kg
6.62 | Cc1cccc(COc2ccnc3c(C)c(C)n(CC4CC4)c23)c1 [Example 154, 1-cyclopropylmethyl-2,3-dimethyl-7-(3-methylbenzyloxy)-1H-pyrrolo[3,2-b]pyridine hydrochloride] | 
6.24 | C=CCn1c(C)c(C)c2nccc(OCc3cccc(C)c3)c21 [Example 155, 1-allyl-2,3-dimethyl-7-(3-methylbenzyloxy)-1H-pyrrolo[3,2-b]pyridine hydrochloride] | 
6.28 | CCn1c(C)c(C)c2nccc(OCc3cccc(C)c3)c21 [Example 145, 1-ethyl-2,3-dimethyl-7-(3-methylbenzyloxy)-1H-pyrrolo[3,2-b]pyridine hydrochloride] | 
6.85 | CCn1c(C)c(C)c2nccc(OCc3ccc(Cl)cc3)c21 [Example 90, 7-(4-chlorobenzyloxy)-1-ethyl-2,3-dimethyl-1H-pyrrolo[3,2-b]pyridine hydrochloride] | 
